Laboratory results published in patent US9828357B2, “Cyclic compounds” (Takeda Pharmaceutical Company Limited, priority 2015, dated 2017).

Target: T1, TLR4 (Mus musculus, UniProt Q9QUK6)
T1 construct: endogenous in cells; host or cells: RAW264.7 (murine macrophage cell line)
T1 sequence (Q9QUK6 26-835): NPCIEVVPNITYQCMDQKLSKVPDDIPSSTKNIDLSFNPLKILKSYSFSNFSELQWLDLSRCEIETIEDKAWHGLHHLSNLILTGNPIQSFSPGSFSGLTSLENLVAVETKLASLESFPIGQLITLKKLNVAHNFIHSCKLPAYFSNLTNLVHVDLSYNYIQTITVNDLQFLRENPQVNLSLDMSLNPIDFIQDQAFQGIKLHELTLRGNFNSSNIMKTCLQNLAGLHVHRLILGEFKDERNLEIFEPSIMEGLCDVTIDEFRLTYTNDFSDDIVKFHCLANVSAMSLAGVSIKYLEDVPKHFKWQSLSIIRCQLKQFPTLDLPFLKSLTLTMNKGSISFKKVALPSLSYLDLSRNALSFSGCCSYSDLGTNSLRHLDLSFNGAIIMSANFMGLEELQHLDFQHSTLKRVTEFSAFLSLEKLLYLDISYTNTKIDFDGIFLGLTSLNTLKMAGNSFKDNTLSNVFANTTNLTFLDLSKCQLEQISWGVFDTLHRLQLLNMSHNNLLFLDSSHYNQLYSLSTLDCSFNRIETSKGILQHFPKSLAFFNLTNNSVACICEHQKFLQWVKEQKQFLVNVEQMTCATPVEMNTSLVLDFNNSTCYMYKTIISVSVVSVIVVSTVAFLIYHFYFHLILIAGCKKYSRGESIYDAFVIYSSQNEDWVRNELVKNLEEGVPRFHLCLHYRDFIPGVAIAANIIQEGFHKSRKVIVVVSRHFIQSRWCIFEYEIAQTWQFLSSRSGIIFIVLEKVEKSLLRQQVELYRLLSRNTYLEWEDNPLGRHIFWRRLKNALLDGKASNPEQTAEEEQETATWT
T1 sequence (Q9JHF9 19-160 partner): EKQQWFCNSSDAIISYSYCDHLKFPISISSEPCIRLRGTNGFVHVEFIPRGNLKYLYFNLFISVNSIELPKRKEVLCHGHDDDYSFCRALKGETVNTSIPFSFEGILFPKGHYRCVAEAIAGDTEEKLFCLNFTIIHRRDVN
Test: Inhibitory effect with respect to NO production (LPS/interferon γ-stimulated RAW264.7)
Format: cell-based, murine
Details: RAW264.7 cells, LPS 1.25 ng/mL and mouse interferon γ 0.2 ng/mL, nitrite ion in culture supernatant
Method: The inhibitory effect on TLR4 was determined using the inhibition rate due to the test compound with respect to NO production as a result of addition of lipopolysaccharide (LPS) using murine macrophage cell line RAW264.7. The cells were adjusted to 2×10^6 cells/mL using RPM1-1640 culture medium (phenol red free) supplemented with 10% inactivated bovine fetal serum, and were plated on 384 well plate so as to contain 6×10^4 cells/30 μL per well. Thereafter the cells were cultured at 37° C. overnight under 5% CO2/95% air. The test compound dissolved in DMSO was diluted 200 times using RPM1-1640 culture medium and adjusted so as to form a compound concentration of 500 nM. The prepared test compound 10 μL (final concentration 100 nM) was added to the cells, and LPS (Sigma) and mouse interferon γ (Wako Pure Chemicals) were added in amounts of 10 μL so as to form final concentrations of 1.25 ng/mL and 0.2 ng/mL respectively. The cells were further cultured overnight, and then the nitrite ion (stable NO metabolite) concentration in the culture supernatant was measured as an index of NO production. The nitrite ion concentration was assayed by adding 10 μL of 20 μg/mL 2,3-diamino naphthalene (DAN) dissolved in 0.2N HCl to 20 μL culture supernatant, incubating at room temperature for ten minutes, and then adding 10 μL of 0.5N NaOH, and measuring the fluorescent value at 460 nm (excitation wavelength 355 nm) using an EnVision plate reader (Perkin Elmer). The NO production inhibition rate (%) was calculated using the value without the addition of stimulating agent as control of 100% inhibition, and the value without the addition of the compound as control of 0% inhibition.

CCOC(=O)C1=CC2(CC[C@H]1S(=O)(=O)[C@H]1CCc3cccc(Cl)c31)O[C@H](CO)[C@@H](CO)O2 [Compound 6, Ethyl (2R,3R,8R)-8-(((1S)-7-chloro-2,3-dihydro-1H-inden-1-yl)sulfonyl)-2,3-bis(hydroxymethyl)-1,4-dioxaspiro[4.5]dec-6-ene-7-carboxylate]
NO production inhibitory effect at 100 nM (% inhibition): 103 % inhibition
